27 compounds from the supplement of paper PMC10290057 can be followed below.

For experiment [1], the system named is HCT116. As to the kind of experiment: efficacy (fitted maximal change in viability relative to DMSO control); higher = less cytotoxic (negative = loss of viability). The following applies: 48 h.
In experiment [2] the test system is HCT116. As to the kind of experiment: AC50 cell viability (CellTiter-Glo); higher = less potent. The conditions noted are these: 48 h.
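Throughout, for AC50 cell viability (CellTiter-Glo): HCT116 colorectal carcinoma cells screened at five concentrations per compound, luminescent viability scaled between DMSO wells and empty wells on each plate, curves fitted per compound.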
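Throughout, for efficacy (fitted maximal change in viability relative to DMSO control): Luminescence-based viability readout, five doses per compound, normalized against on-plate DMSO and empty-well controls, followed by dose-response curve fitting for every drug.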

For the compound `c1ccc(CNc2nc(NCc3ccccc3)c3ccccc3n2)cc1`, the efficacy in the experiment with HCT116 [1] was -98.7%. The same compound gave an AC50 cell viability in the experiment on HCT116 [2] of 8.33 µM.

In the case of `C/C1=C/C(=C(/CNC(=O)C2=CC(=CC3=C2C=N[N]3C4CCCC4)C5=CC=C(CN6CCOCC6)C=C5)C(=O)N1)C`, in the experiment with HCT116 [1], the efficacy is -108%. The compound further yielded an AC50 cell viability with HCT116 [2] of 20.9 µM.

Regarding `c1ccc(CNc2nc(N3CCOc4ccccc43)nc3c2CCCC3)cc1`, the efficacy in the experiment on HCT116 [1] was -42.4%. Besides, the AC50 cell viability in the experiment with HCT116 [2] amounted to 20.9 µM.

As to `CC(C)(C)Cn1c(N)nc2ccc(-c3[nH]c(C(C)(C)C)nc3-c3ccc(F)cc3)nc21`, the efficacy in the experiment with HCT116 [1] was -83.7%. In addition, the AC50 cell viability in the experiment with HCT116 [2] came to 23.5 µM.

For `CC(=O)Nc1ccc([C@H](C)C(=O)Nc2ncc(C(C)C)s2)cc1`, in the experiment with HCT116 [1], the efficacy was -59.3%. This compound gave an AC50 cell viability in the experiment on HCT116 [2] of 2.09 µM.

In the case of `CC(C)C1=N[N](C\2=C1C(=O)N\C(=N2)CC3=CC=C(OCCO)C=C3)C4=C(Cl)C=CC=C4Cl`, the efficacy in the experiment on HCT116 [1] is -63.1%. The compound also gave an AC50 cell viability with HCT116 [2] of 0.0295 µM.

On to `Cc1[nH]c(/C=C2\C(=O)Nc3ccc([S+](=O)([O-])Cc4c(Cl)cccc4Cl)cc32)c(C)c1C(=O)N1CCC[C@@H]1CN1CCCC1`, for which the efficacy in the experiment on HCT116 [1] was -92%. In the experiment with HCT116 [2], the AC50 cell viability turned out to be 7.42 µM.

Consider `Cc1[nH]c(/C=C2\C(=O)Nc3ccc(F)cc32)c(C)c1C(=O)NC[C@H](O)CN1CCOCC1`, for which the efficacy with HCT116 [1] was -73%. Further, the AC50 cell viability in the experiment with HCT116 [2] came to 2.63 µM.

Consider `Cc1cc(-c2cnn3c(NC[C@H]4C[C@@](C)(O)C4)cc(Oc4cccnc4)nc23)ccc1C(=O)NC1CC1`, for which the efficacy in the experiment with HCT116 [1] was -56.6%. This compound came in with an AC50 cell viability with HCT116 [2] of 0.934 µM.

Consider `Cc1ccc(-n2c(C)cc(-c3nnc4n3CCCCC4)c2C)cc1`, for which the efficacy in the experiment on HCT116 [1] is -47.3%. In addition, in the experiment with HCT116 [2], the AC50 cell viability was found to be 20.9 µM.

For the compound `Cc1ccc([S+](=O)([O-])Cc2nc(-c3ccc(C(=O)NCc4cccnc4)cc3)oc2C)cc1`, in the experiment on HCT116 [1], the efficacy was -90.9%. Further, the AC50 cell viability in the experiment with HCT116 [2] came out at 0.0372 µM.

With `Cc1ccc([S+](=O)([O-])Nc2cc(-c3ccc(C#N)s3)ccc2C)cc1`, the efficacy in the experiment with HCT116 [1] was -59.9%. In addition, in the experiment on HCT116 [2], the AC50 cell viability was determined as 0.0372 µM.

As for `Cc1cnc(Nc2ccc(F)cc2Cl)nc1-c1c[nH]c(C(=O)N[C@H](CO)c2cccc(Cl)c2)c1`, in the experiment on HCT116 [1], the efficacy is -115%. In the experiment with HCT116 [2], this compound came in with an AC50 cell viability of 4.17 µM.

In the case of `Cc1cccc(-c2[nH]c(C(C)(C)C)nc2-c2ccc3c(c2)OCO3)n1`, the efficacy in the experiment on HCT116 [1] was -86.6%. This compound returned an AC50 cell viability in the experiment on HCT116 [2] of 2.95 µM.

On to `CCc1cncnc1N1CCN(Cc2nc3cc(C(F)(F)F)ccc3[nH]2)CC1`, for which the efficacy in the experiment on HCT116 [1] is -42.6%. In addition, in the experiment with HCT116 [2], the AC50 cell viability was 14.8 µM.

As to `CCc1cnn2c(NCc3ccc[n+]([O-])c3)cc(N3CCCC[C@H]3CCO)nc12`, the efficacy with HCT116 [1] is -67.1%. In the experiment with HCT116 [2], this compound came in with an AC50 cell viability of 0.0148 µM.

Consider `CCN(CC)CCCC(C)Nc1nc(C)cc(Nc2ccc3nc(C)cc(N)c3c2)n1` (centres undefined), for which the efficacy in the experiment on HCT116 [1] is -54.4%. The compound also displayed an AC50 cell viability with HCT116 [2] of 20.9 µM.

For the compound `CCN(CC)CCCCNc1ncc2cc(-c3cc(OC)cc(OC)c3)c(NC(=O)NC(C)(C)C)nc2n1`, in the experiment on HCT116 [1], the efficacy is -117%. Also, the AC50 cell viability with HCT116 [2] amounted to 18.6 µM.

`CCOC(=O)N1CCN(/[N+]([O-])=N/Oc2ccc([N+](=O)[O-])cc2[N+](=O)[O-])CC1`: the efficacy in the experiment on HCT116 [1] is -71.8%. Further, in the experiment with HCT116 [2], the AC50 cell viability amounted to 18.6 µM.

As for `CCn1c(-c2nonc2N)nc2cncc(CNC3CCNCC3)c21`, the efficacy with HCT116 [1] was -43.9%. This compound came in with an AC50 cell viability in the experiment with HCT116 [2] of 10.5 µM.

With `CCn1c(-c2nonc2N)nc2cnc(Oc3cccc(NC(=O)c4ccc(OCCN5CCOCC5)cc4)c3)cc21`, the efficacy in the experiment on HCT116 [1] was -79.2%. The AC50 cell viability with HCT116 [2] worked out at 10.5 µM.

As for `CCn1cc(-c2ccnc3[nH]c(-c4cccc(CN(C)C)c4)cc23)c(-c2ccc(NC(=O)N(C)C)cc2)n1`, the efficacy in the experiment on HCT116 [1] is -101%. The AC50 cell viability with HCT116 [2] was 5.25 µM.

`CN(c1ncccc1CNc1nc(Nc2ccc3c(c2)CC(=O)N3)ncc1C(F)(F)F)[S+](C)(=O)[O-]`: in the experiment on HCT116 [1], the efficacy was -62.3%. Besides, in the experiment with HCT116 [2], the AC50 cell viability came to 2.63 µM.

For the compound `CN1CCC(CC1)COC2=CN=C(N=C2)C3=CC(=CC=C3)CN4/N=C(\C=C/C4=O)C5=CC(=CC=C5)C#N`, the efficacy in the experiment with HCT116 [1] was -30.6%. Further, in the experiment with HCT116 [2], the AC50 cell viability worked out at 7.42 µM.

Regarding `COc1ccc(-c2ccc3c(N4CCOCC4)nc(N4C[C@@H](C)O[C@@H](C)C4)nc3n2)cc1CO`, the efficacy in the experiment on HCT116 [1] is -45.6%. The compound further returned an AC50 cell viability in the experiment on HCT116 [2] of 1.66 µM.

`COc1ncc(-c2ccc3nccc(-c4ccnnc4)c3c2)cc1N[S+](=O)([O-])c1ccc(F)cc1F`: the efficacy in the experiment on HCT116 [1] was -74.6%. In addition, the AC50 cell viability in the experiment with HCT116 [2] is 0.105 µM.

In the case of `COc1cccc2c(NCc3ccccc3)nc(-n3c(N)nc4ccccc43)nc12`, the efficacy in the experiment with HCT116 [1] was -93.4%. This compound returned an AC50 cell viability with HCT116 [2] of 5.9 µM.
